PMC11042424, “Development of a First-in-Class RIPK1 Degrader to Enhance Antitumor Immunity” (Research Square, 2024)

Columns and labels:
hERG channel = hERG channel (Homo sapiens, UniProt Q12809); assay: hERG channel inhibition assay; conditions: at 30 μM
Plasma protein binding = format: in vitro ADME; conditions: read-out: bound to plasma proteins (converted)
[1] = Stability in mouse liver S9 fractions; format: in vitro ADME
RIPK1 and VHL = molecular target: T1, RIPK1 and VHL (Homo sapiens, UniProt P40337+Q13546); assay: NanoBRET live-cell ternary complex assay; format: cell-based; conditions: HEK293 cells co-transfected with nLuc-RIPK1 and VHL-Halo
T1 construct: Addgene backbone 87075 (RIPK1 vector, made in house) N273A; host or cells: HEK293T
Method: Figure 2 LD4172, a RIPK1 PROTAC, induces potent and highly specific degradation of RIPK1 in a panel of cell lines. A, Chemical structures of RIPK1 PROTAC, LD4172, and its negative control, LD4172-NC. […] B, Quantification of RIPK1 levels in both Jurkat and B16F10 cells treated with LD4172 at indicated concentrations for 24 h, followed by Western blotting. C, DC50 and Dmax of LD4172 in various human and mouse cell lines. DC50, the drug concentration causing 50% protein degradation; Dmax, the maximum level of protein degradation. D, RIPK1 degradation kinetics induced by LD4172 treatment (1 μM) and resynthesis kinetics upon washout of LD4172 in both Jurkat and B16F10 cells. […] G, Time-resolved fluorescence resonance energy transfer (TR-FRET) based biochemical binding assay for RIPK1. […] In total, ~10,000 proteins were quantified in the proteomics experiment. […]
Human RIPK1 cDNA insert was cloned into pLenti6.2-ccdB-nLuc plasmid (87075, Addgene, a kind gift from Taipale Lab) using gateway cloning kit (11791020, Thermo) and standard protocol to obtain pLenti6.2-RIPK1-nLuc fusion vector. […] Immediately before reading the plate, prepare 4x concentrated NanoGlo nLuc substrate (N157, Promega) was prepared by diluting the stock into Opti-MEM 1,000-fold, and the NanoGlo substrate was then added into each well to bring the final concentration to 1x. […]

hERG channel, sequence (Q12809 whole entry): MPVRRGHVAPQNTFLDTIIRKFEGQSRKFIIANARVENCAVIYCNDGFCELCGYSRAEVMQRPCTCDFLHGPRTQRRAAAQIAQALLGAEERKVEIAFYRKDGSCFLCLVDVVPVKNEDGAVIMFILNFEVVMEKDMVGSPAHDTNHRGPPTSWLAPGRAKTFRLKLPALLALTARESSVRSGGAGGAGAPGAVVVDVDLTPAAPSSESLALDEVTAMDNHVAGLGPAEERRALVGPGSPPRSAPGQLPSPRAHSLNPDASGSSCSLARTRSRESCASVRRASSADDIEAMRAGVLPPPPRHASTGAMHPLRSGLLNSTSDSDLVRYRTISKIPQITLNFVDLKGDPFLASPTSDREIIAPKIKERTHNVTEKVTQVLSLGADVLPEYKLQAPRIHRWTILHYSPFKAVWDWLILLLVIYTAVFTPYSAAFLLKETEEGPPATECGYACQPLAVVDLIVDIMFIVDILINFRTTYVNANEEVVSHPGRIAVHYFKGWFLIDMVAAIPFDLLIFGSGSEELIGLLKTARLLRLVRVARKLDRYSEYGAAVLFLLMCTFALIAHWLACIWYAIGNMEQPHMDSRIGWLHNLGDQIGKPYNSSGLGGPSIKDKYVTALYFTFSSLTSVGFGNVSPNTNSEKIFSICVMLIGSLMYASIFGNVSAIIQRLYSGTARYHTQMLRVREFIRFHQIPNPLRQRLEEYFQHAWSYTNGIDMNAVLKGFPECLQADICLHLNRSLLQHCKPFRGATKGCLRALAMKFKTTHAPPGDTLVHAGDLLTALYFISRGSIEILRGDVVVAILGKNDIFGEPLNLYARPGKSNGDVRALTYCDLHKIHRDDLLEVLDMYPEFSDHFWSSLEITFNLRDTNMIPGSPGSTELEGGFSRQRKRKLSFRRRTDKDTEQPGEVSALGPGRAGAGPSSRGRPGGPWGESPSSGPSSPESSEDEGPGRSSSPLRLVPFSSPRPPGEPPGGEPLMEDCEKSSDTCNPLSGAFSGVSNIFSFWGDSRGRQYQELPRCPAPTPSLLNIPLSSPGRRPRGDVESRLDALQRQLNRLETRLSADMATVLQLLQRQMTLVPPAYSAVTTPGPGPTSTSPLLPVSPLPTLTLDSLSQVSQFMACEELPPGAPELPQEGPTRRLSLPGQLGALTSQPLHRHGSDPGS

Cc1ncsc1-c1ccc([C@H](C)NC(=O)[C@@H]2C[C@@H](O)CN2C(=O)[C@@H](NC(=O)CCCCCCCCCCC(=O)NCCCn2cc(-c3ccc4c(c3)CCN4C(=O)Cc3cccc(OC(F)(F)F)c3)c3c(N)ncnc32)C(C)(C)C)cc1 [LD4172]
inhibition of hERG (hERG channel): no obvious inhibition | fraction unbound (Plasma protein binding): 0.014 | half-life [1]: 9.7 min | intrinsic clearance (CLint) [1]: 71.6 μL·min^− 1·mg^− 1 protein | ternary complex formation, NanoBRET between RIPK1 and VHL (RIPK1 and VHL): induced NanoBRET between RIPK1 and VHL
